This passage reports GI50 and TGI results from PubChem BioAssay (NCI).

Molecules are shown by their SMILES.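 Five compound concentrations were applied to cells in 96-well plates for 48 hours; endpoints were derived by simple linear interpolation of the resulting dose-response curve. Here, GI50 denotes the concentration required for 50% inhibition of growth. Definition used: TGI = concentration required for complete inhibition of growth.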

Some test systems named below: 786-0 renal; A549 NSCLC; ACHN renal; CCRF-CEM leukemia; K-562 leukemia; MDA-MB-231 breast; MDA-MB-435; NCI-H460 lung; SF-539 CNS; SW-620 colon.
What all share (assay): NCI anticancer screen, dose series, 48 h

As for `N#Cc1nc(-c2cccc(Br)c2)cc(-c2ccc(Nc3nc(N4CCCCC4)nc(N4CCCCC4)n3)cc2)c1N`, the GI50 in the assay with 786-0 renal is 3.29 µM; in the assay with A549 NSCLC, 3.68 µM; in the assay on ACHN renal, 1.72 µM; in the assay with CCRF-CEM leukemia, 0.587 µM; in the assay on K-562 leukemia, 2.07 µM; with MDA-MB-231 breast it was 1.56 µM. In addition, the GI50 was 2.35 µM in the assay with MDA-MB-435, 1.85 µM in the assay with NCI-H460 lung, 1.74 µM in the assay with SF-539 CNS and 1.53 µM in the assay on SW-620 colon. For the same compound, the TGI in the assay with 786-0 renal is greater than 100 µM; in the assay on A549 NSCLC, greater than 100 µM; in the assay on ACHN renal it was 3.3 µM; in the assay on CCRF-CEM leukemia it was greater than 100 µM; with K-562 leukemia, greater than 100 µM; with MDA-MB-231 breast, 3.21 µM. Further, the TGI in the assay on MDA-MB-435 worked out at 6.64 µM; in the assay with NCI-H460 lung, 3.8 µM; in the assay with SF-539 CNS it was 3.14 µM; with SW-620 colon, 3.48 µM.

In the case of `CCOC(=O)C1CCC/C1=N\N=C(N)N` (stereo not given) (tested in a mixture with another compound), the TGI in the assay on 786-0 renal, in the assay with A549 NSCLC, with ACHN renal, in the assay with CCRF-CEM leukemia, in the assay with K-562 leukemia and with MDA-MB-231 breast was greater than 100 µM each time. Moreover, the TGI in the assay on MDA-MB-435, with NCI-H460 lung, with SF-539 CNS and in the assay on SW-620 colon was greater than 100 µM each time.

Consider `COC(=O)c1c2c(c(C)[n+]([O-])c1C)C(=O)C=C(NCc1ccc(Cl)cc1)C2=O`, for which the GI50 with 786-0 renal was 1.32 µM; in the assay with A549 NSCLC, 0.543 µM; with ACHN renal, 0.233 µM; in the assay with CCRF-CEM leukemia, 0.471 µM; with K-562 leukemia it was 0.0478 µM; in the assay on MDA-MB-231 breast it was 0.286 µM. For the same compound, the GI50 in the assay with MDA-MB-435 was 0.0895 µM; with NCI-H460 lung it was 0.397 µM; with SF-539 CNS, 0.733 µM; with SW-620 colon, 0.143 µM. For the same compound, the TGI with 786-0 renal turned out to be 3.57 µM; with A549 NSCLC, 3.05 µM; with ACHN renal it was 1.91 µM; with CCRF-CEM leukemia, 4.2 µM; in the assay on K-562 leukemia it was 5.25 µM; in the assay on MDA-MB-231 breast it was 3.62 µM. Besides, the TGI with MDA-MB-435 amounted to 0.229 µM; in the assay on NCI-H460 lung, 1.71 µM; in the assay with SF-539 CNS, 1.98 µM; in the assay with SW-620 colon, 1.37 µM.

For `O=C(O)CC(Cc1ccc2c(c1)OCO2)C(=O)O` (stereo not given), the TGI with 786-0 renal, with A549 NSCLC, with ACHN renal, in the assay on CCRF-CEM leukemia, in the assay with K-562 leukemia and with MDA-MB-231 breast was greater than 100 µM throughout. Besides, the TGI with MDA-MB-435, with NCI-H460 lung, in the assay with SF-539 CNS and in the assay on SW-620 colon was greater than 100 µM in each case.

For the compound `O=C1N=C2c3c(sc4c3CCCC4)N=CN2C1N=Nc1ccc(Cl)cc1` (stereo not given), the GI50 with 786-0 renal is 39.5 µM; in the assay with A549 NSCLC, 42.2 µM; with ACHN renal it was 32.3 µM; with CCRF-CEM leukemia, 13.8 µM; with K-562 leukemia, 5.13 µM; with MDA-MB-231 breast, 20.1 µM. The GI50 in the assay on MDA-MB-435 was 19.8 µM; with NCI-H460 lung, 27.8 µM; with SF-539 CNS it was 15.9 µM; with SW-620 colon, 23.1 µM. Besides, the TGI was greater than 100 µM in the assay with 786-0 renal; greater than 100 µM with A549 NSCLC; greater than 100 µM with ACHN renal; 87.9 µM in the assay on CCRF-CEM leukemia; 87.1 µM in the assay on K-562 leukemia; greater than 100 µM with MDA-MB-231 breast. The TGI in the assay on MDA-MB-435 is 58.1 µM; in the assay with NCI-H460 lung, 79.8 µM; in the assay with SF-539 CNS, 46.8 µM; in the assay with SW-620 colon, greater than 100 µM.

Take `CC1(C)CCSC(/C=C/c2ccccc2)=N1`: the TGI is 25.6 µM in the assay on 786-0 renal; greater than 100 µM with A549 NSCLC; 38.8 µM with ACHN renal; greater than 100 µM with CCRF-CEM leukemia; greater than 100 µM with K-562 leukemia; 30.6 µM in the assay with MDA-MB-231 breast. Moreover, the TGI in the assay with MDA-MB-435 came to 32.6 µM; in the assay with NCI-H460 lung, 24.6 µM; in the assay with SF-539 CNS, 43.5 µM; with SW-620 colon, 38.6 µM.

As for `CCN(CC)c1ccc(/C=N/NC(=O)c2ccc(Nc3ccnc(C(F)(F)F)c3)cc2)c(O)c1`, the GI50 with 786-0 renal is 0.188 µM; with A549 NSCLC, 0.439 µM; in the assay with ACHN renal it was 0.142 µM; in the assay on CCRF-CEM leukemia, 0.0532 µM; in the assay with K-562 leukemia it was 0.147 µM; with MDA-MB-231 breast it was 0.396 µM. The GI50 in the assay on MDA-MB-435 was 0.454 µM; with NCI-H460 lung, 0.212 µM; with SF-539 CNS it was 0.234 µM; in the assay on SW-620 colon, 0.404 µM. In addition, the TGI with 786-0 renal is 0.447 µM; in the assay with A549 NSCLC, greater than 100 µM; in the assay with ACHN renal, 2.56 µM; in the assay with CCRF-CEM leukemia, 0.771 µM; in the assay with K-562 leukemia, 3.47 µM; with MDA-MB-231 breast, 3.97 µM. Moreover, the TGI in the assay on MDA-MB-435 is 7.79 µM; with NCI-H460 lung, 1.48 µM; in the assay with SF-539 CNS it was 0.87 µM; with SW-620 colon, greater than 64.7 µM.

Take `CCCCCC(=O)N1c2ccccc2NC2=C(C(=O)CC(c3ccc(OC)c(OC)c3)C2)C1c1ccc(C(F)(F)F)cc1` (stereo not given): the GI50 in the assay on 786-0 renal is greater than 100 µM; in the assay on A549 NSCLC, greater than 100 µM; with ACHN renal, greater than 100 µM; in the assay on CCRF-CEM leukemia it was greater than 100 µM; with K-562 leukemia, greater than 100 µM; with MDA-MB-231 breast it was 20.4 µM. The GI50 with MDA-MB-435 is 50.7 µM; in the assay with NCI-H460 lung, greater than 100 µM; in the assay on SF-539 CNS, greater than 100 µM; with SW-620 colon, greater than 100 µM. For the same compound, the TGI in the assay with 786-0 renal, in the assay with A549 NSCLC, in the assay on ACHN renal, in the assay with CCRF-CEM leukemia, in the assay with K-562 leukemia and in the assay with MDA-MB-231 breast was greater than 100 µM in each case. For the same compound, the TGI in the assay on MDA-MB-435, in the assay with NCI-H460 lung, in the assay on SF-539 CNS and in the assay on SW-620 colon was greater than 100 µM each time.

Take `N#Cc1c(NC(=O)c2cccs2)[n+]([O-])c2ccccc2[n+]1[O-]`: the GI50 in the assay with 786-0 renal, in the assay with A549 NSCLC, in the assay with ACHN renal, in the assay on CCRF-CEM leukemia, in the assay on K-562 leukemia and with MDA-MB-231 breast was greater than 100 µM throughout. In addition, the GI50 in the assay with MDA-MB-435, in the assay on NCI-H460 lung, in the assay on SF-539 CNS and in the assay with SW-620 colon was greater than 100 µM throughout. Further, the TGI in the assay with 786-0 renal, in the assay with A549 NSCLC, in the assay with ACHN renal, in the assay with CCRF-CEM leukemia, in the assay on K-562 leukemia and in the assay with MDA-MB-231 breast was greater than 100 µM each time. The TGI in the assay with MDA-MB-435, in the assay with NCI-H460 lung, in the assay on SF-539 CNS and with SW-620 colon was greater than 100 µM in each case.
